Literature values as cited in patent US7951359B2, “Compositions and methods for therapy or prevention of chemotherapy-induced neuropathy” (Merck Serono SA, priority 2004, dated 2011).

Test system: CIPN caused by carboplatin/paclitaxel
Conditions: 2 or 4 μg/kg sub coetaneous daily for 7 days; cited from earlier work

For “LIF: Recombinant leukemia inhibitor factor (LIF), another gp130 activator”, the “prevention of CIPN” value is given as “ineffective at preventing CIPN”.
